These are literature values, as cited in US20210040357A1, “ELECTROCONDUCTIVE ADHESIVE COMPOSITION, CURED PRODUCT OF ELECTROCONDUCTIVE ADHESIVE, AND ELECTRONIC DEVICE” (TANAKA KIKINZOKU KOGYO K.K., priority 2018, published 2021).

With `CC(C)C1=CC2=CC[C@@H]3[C@](C)(CCC[C@@]3(C)C(=O)O)[C@H]2CC1` [Abietic acid], the “Acid dissociation constant pKa” value is on record as 4.64.

As for `CCCCCCCCCCCCCCCCCC(=O)O` [Stearic acid], the “Acid dissociation constant pKa” value is recorded as “about 5.0”.

`CCCCCCCC/C=C\CCCCCCCC(=O)O` [oleic acid]: the “Acid dissociation constant pKa” value is reported as “about 5.0”.
